This assay deals with apolipoprotein B. Nature of the assay: Apolipoprotein B (apo B) inhibition test. The following applies: Hep G2-cells; concentration needed to reduce apoB secretion to 50% of the control. It counts as cell-based, human. Here is the method: Cultured human liver cells (Hep G2-cells ) which synthesize and secrete low-density lipoproteins, were incubated overnight at 37° C. in a liquid medium containing radioactively labelled leucine. Thus radioactively labelled leucine was incorporated into the apolipoprotein B. The liquid medium was decanted and the apolipoprotein B was isolated by means of a double immunoprecipitation, i.e. first an apolipoprotein B-specific antibody (antibody1) was added to the liquid medium and subsequently a second antibody (antibody2) was added which binds specifically to the apoB-antibody1-complex. The thus formed apoB-antibody1-antibody2 complex precipitated and was isolated by centrifuge. Quantification of the amount of apolipoprotein B synthesized during the night resulted from measuring the radioactivity of the isolated complex. […] For each experiment the inhibition of apolipoprotein-B formation was expressed as [formula]
When more experiments were carried out for the same concentration, the median value of the inhibition calculated for these experiments was calculated. […]

One may read the IC50 as the midpoint of a concentration-inhibition curve. Low values mean greater potency, high ones weaker potency. Turning to `CCC(C)n1ncn(-c2ccc(N3CCN(c4ccc(OC[C@H]5CO[C@](CSc6nncn6C)(c6ccc(Cl)cc6)O5)cc4)CC3)cc2)c1=O` (relative stereo) [Compound 40, cis-4-[4-[4-[4-[[2-(4-chlorophenyl)-2-[[(4-methyl-4H-1,2,4-triazol-3-yl)thio]methyl]-1,3-dioxolan-4-yl]methoxy]phenyl]-1-piperazinyl]phenyl]-2,4-dihydro-2-(1-methyl-propyl)-3H-1,2,4-triazol-3-one], the IC50 was found to be 23 nM.

The record behind these values is patent publication US6342245B1, “Compositions of lipid lowering agents” (Janssen Pharmaceutica N.V., priority 1997, dated 2002).
